{"source": "ChEMBL document CHEMBL1142346", "about": "“Quantitative structural-activity relationship (QSAR) study for fungicidal activities of thiazoline derivatives against rice blast” (2008)", "tested_on": "Pyricularia grisea", "assay": "Antifungal activity against Magnaporthe grisea infected rice plant assessed as logarithm of fungal control value at 100 ppm after 5 days", "type": "functional", "data": [{"compound": "CC(C)Oc1ccc(/N=c2/scc(CC(=O)Nc3ccc(C(F)F)cc3)n2C)cc1", "values": [{"measurement": "Activity", "value": 1.7}]}, {"compound": "Cn1c(CC(=O)Nc2ccc(Cl)cc2)cs/c1=N\\c1ccc(Oc2ccccc2)cc1", "values": [{"measurement": "Activity", "value": 1.92}]}, {"compound": "COc1ccc(NC(=O)Cc2cs/c(=N\\c3ccc(C(F)(F)F)cc3)n2C)cc1", "values": [{"measurement": "Activity", "value": 1.99}]}, {"compound": "Cn1c(CC(=O)Nc2ccc(Cl)cc2)cs/c1=N\\c1ccc(F)c(Cl)c1", "values": [{"measurement": "Activity", "value": 1.98}]}, {"compound": "CCOc1ccc(NC(=O)Cc2cs/c(=N\\c3ccc(F)c(Cl)c3)n2C)cc1", "values": [{"measurement": "Activity", "value": 1.94}]}, {"compound": "COc1ccc(NC(=O)Cc2cs/c(=N\\c3cccc([N+](=O)[O-])c3)n2C)cc1", "values": [{"measurement": "Activity", "value": 1.99}]}, {"compound": "Cn1c(CC(=O)Nc2ccc(OC(F)(F)F)cc2)cs/c1=N\\c1cccc(C(F)(F)F)c1", "values": [{"measurement": "Activity", "value": 1.7}]}, {"compound": "Cn1c(CC(=O)Nc2ccc(Br)cc2)cs/c1=N\\c1cccc(F)c1", "values": [{"measurement": "Activity", "value": 1.9}]}, {"compound": "CCc1ccc(NC(=O)Cc2cs/c(=N\\c3ccc(Br)cc3C)n2C)cc1", "values": [{"measurement": "Activity", "value": 1.98}]}, {"compound": "COc1ccc(/N=c2\\scc(CC(=O)Nc3ccc(C(F)F)cc3)n2C)cc1", "values": [{"measurement": "Activity", "value": 1.4}]}, {"compound": "Cc1ccc(NC(=O)Cc2cs/c(=N\\c3ccccc3F)n2C)cc1", "values": [{"measurement": "Activity", "value": 1.94}]}, {"compound": "CCCCc1ccc(NC(=O)Cc2cs/c(=N\\c3cccc(F)c3)n2C)cc1", "values": [{"measurement": "Activity", "value": 1}]}, {"compound": "Cn1c(CC(=O)Nc2ccc(OC(F)(F)F)cc2)cs/c1=N\\c1cccc(Br)c1", "values": [{"measurement": "Activity", "value": 1.7}]}, {"compound": "CCc1ccc(NC(=O)Cc2cs/c(=N\\c3cccc(Cl)c3C)n2C)cc1", "values": [{"measurement": "Activity", "value": 1.95}]}, {"compound": "CCc1ccc(NC(=O)Cc2cs/c(=N\\c3ccc(F)cc3Cl)n2C)cc1", "values": [{"measurement": "Activity", "value": 1.98}]}, {"compound": "CCc1ccc(NC(=O)Cc2cs/c(=N\\c3ccc(Br)cc3F)n2C)cc1", "values": [{"measurement": "Activity", "value": 2}]}, {"compound": "CCc1ccc(NC(=O)Cc2cs/c(=N\\c3ccc(C)cc3Br)n2C)cc1", "values": [{"measurement": "Activity", "value": 1.94}]}, {"compound": "CCOc1ccc(NC(=O)Cc2cs/c(=N\\c3ccc(F)cc3F)n2C)cc1", "values": [{"measurement": "Activity", "value": 1.9}]}, {"compound": "COc1ccc(NC(=O)Cc2cs/c(=N\\c3ccc(Cl)c(C(F)(F)F)c3)n2C)cc1", "values": [{"measurement": "Activity", "value": 2}]}, {"compound": "COc1ccc(NC(=O)Cc2cs/c(=N\\c3cccc(C(F)(F)F)c3)n2C)cc1", "values": [{"measurement": "Activity", "value": 2}]}, {"compound": "COc1ccc(NC(=O)Cc2cs/c(=N\\c3ccc(C)cc3C)n2C)cc1", "values": [{"measurement": "Activity", "value": 1.96}]}, {"compound": "COc1ccc(NC(=O)Cc2cs/c(=N\\c3ccccc3Br)n2C)cc1", "values": [{"measurement": "Activity", "value": 1.92}]}, {"compound": "COc1ccc(NC(=O)Cc2cs/c(=N\\c3ccccc3C(C)C)n2C)cc1", "values": [{"measurement": "Activity", "value": 1.9}]}, {"compound": "CCc1ccc(NC(=O)Cc2cs/c(=N\\c3ccc(F)c([N+](=O)[O-])c3)n2C)cc1", "values": [{"measurement": "Activity", "value": 1.98}]}, {"compound": "COc1ccc(NC(=O)Cc2cs/c(=N\\c3ccc(Cl)cc3F)n2C)cc1", "values": [{"measurement": "Activity", "value": 1.97}]}, {"compound": "COc1ccc(NC(=O)Cc2cs/c(=N\\c3ccc(F)cc3F)n2C)cc1", "values": [{"measurement": "Activity", "value": 1.97}]}, {"compound": "CCCCc1ccc(/N=c2\\scc(CC(=O)Nc3ccc(Cl)cc3)n2C)cc1", "values": [{"measurement": "Activity", "value": 1.97}]}, {"compound": "CCc1ccc(NC(=O)Cc2cs/c(=N\\c3cccc([N+](=O)[O-])c3)n2C)cc1", "values": [{"measurement": "Activity", "value": 1.99}]}, {"compound": "Cn1c(CC(=O)Nc2ccc([N+](=O)[O-])cc2)cs/c1=N\\c1ccc(F)cc1F", "values": [{"measurement": "Activity", "value": 1.23}]}, {"compound": "Cn1c(CC(=O)Nc2ccc(Oc3ccccc3)cc2)cs/c1=N\\c1ccc(F)cc1F", "values": [{"measurement": "Activity", "value": 1.23}]}, {"compound": "COc1ccccc1/N=c1\\scc(CC(=O)Nc2ccc(OC(F)(F)F)cc2)n1C", "values": [{"measurement": "Activity", "value": 0.7}]}, {"compound": "Cc1ccc(/N=c2\\scc(CC(=O)Nc3ccc(OC(F)(F)F)cc3)n2C)c(C)c1", "values": [{"measurement": "Activity", "value": 1.23}]}, {"compound": "Cn1c(CC(=O)Nc2ccc(C#N)cc2)cs/c1=N\\c1ccc(F)cc1F", "values": [{"measurement": "Activity", "value": 1.23}]}, {"compound": "CCc1ccc(NC(=O)Cc2cs/c(=N\\c3ccccc3F)n2C)cc1", "values": [{"measurement": "Activity", "value": 1.99}]}, {"compound": "Cn1c(CC(=O)Nc2ccc(C(F)F)cc2)cs/c1=N\\c1ccc(Br)cc1", "values": [{"measurement": "Activity", "value": 1.4}]}, {"compound": "Cn1c(CC(=O)Nc2ccc(Br)cc2)cs/c1=N\\c1cccc(Br)c1", "values": [{"measurement": "Activity", "value": 1.99}]}, {"compound": "CCOc1ccc(NC(=O)Cc2cs/c(=N\\c3cccc(Br)c3)n2C)cc1", "values": [{"measurement": "Activity", "value": 1.91}]}, {"compound": "Cn1c(CC(=O)Nc2ccc([N+](=O)[O-])cc2)cs/c1=N/c1ccc(C#N)cc1", "values": [{"measurement": "Activity", "value": 0.7}]}, {"compound": "Cc1ccc(NC(=O)Cc2cs/c(=N/c3ccc(F)cc3)n2C)cc1", "values": [{"measurement": "Activity", "value": 1.96}]}, {"compound": "CCc1ccc(NC(=O)Cc2cs/c(=N\\c3ccc(Cl)cc3Cl)n2C)cc1", "values": [{"measurement": "Activity", "value": 1.96}]}, {"compound": "COc1ccc(NC(=O)Cc2cs/c(=N\\c3ccc(C)c(F)c3)n2C)cc1", "values": [{"measurement": "Activity", "value": 1.98}]}, {"compound": "COc1ccc(NC(=O)Cc2cs/c(=N\\c3ccc(OC)c(Cl)c3)n2C)cc1", "values": [{"measurement": "Activity", "value": 1.98}]}, {"compound": "CCc1ccc(NC(=O)Cc2cs/c(=N\\c3ccc(OC)cc3C)n2C)cc1", "values": [{"measurement": "Activity", "value": 2}]}, {"compound": "Cc1ccc(NC(=O)Cc2cs/c(=N\\c3ccc(F)cc3F)n2C)cc1", "values": [{"measurement": "Activity", "value": 1.99}]}, {"compound": "COc1ccc(NC(=O)Cc2cs/c(=N\\c3ccc(Cl)c(Cl)c3)n2C)cc1", "values": [{"measurement": "Activity", "value": 1.98}]}, {"compound": "Cn1c(CC(=O)Nc2ccc(Cl)cc2)cs/c1=N\\c1ccc(OC(F)(F)F)cc1", "values": [{"measurement": "Activity", "value": 1.82}]}, {"compound": "CCc1ccc(NC(=O)Cc2cs/c(=N\\c3ccc(Cl)cc3F)n2C)cc1", "values": [{"measurement": "Activity", "value": 1.99}]}, {"compound": "Cn1c(CC(=O)Nc2ccc(C(F)F)cc2)cs/c1=N\\c1ccc(Cl)cc1", "values": [{"measurement": "Activity", "value": 1.52}]}, {"compound": "COc1ccc(NC(=O)Cc2cs/c(=N\\c3cccc(C)c3)n2C)cc1", "values": [{"measurement": "Activity", "value": 1.98}]}, {"compound": "COc1ccc(NC(=O)Cc2cs/c(=N\\c3ccccc3F)n2C)cc1", "values": [{"measurement": "Activity", "value": 1.99}]}, {"compound": "Cn1c(CC(=O)Nc2ccc([N+](=O)[O-])cc2)cs/c1=N\\c1cccc(F)c1", "values": [{"measurement": "Activity", "value": 1.23}]}, {"compound": "Cn1c(CC(=O)Nc2ccc(OC(F)(F)F)cc2)cs/c1=N\\c1cccc(F)c1", "values": [{"measurement": "Activity", "value": 1.62}]}, {"compound": "COc1ccc(NC(=O)Cc2cs/c(=N\\c3ccc(F)c(Cl)c3)n2C)cc1", "values": [{"measurement": "Activity", "value": 1.98}]}, {"compound": "CCc1ccc(NC(=O)Cc2cs/c(=N\\c3ccc([N+](=O)[O-])cc3OC)n2C)cc1", "values": [{"measurement": "Activity", "value": 1.81}]}, {"compound": "CCc1ccc(/N=c2\\scc(CC(=O)Nc3ccc(OC)cc3)n2C)cc1", "values": [{"measurement": "Activity", "value": 1.98}]}, {"compound": "CCc1ccc(NC(=O)Cc2cs/c(=N\\c3ccc(Br)cc3)n2C)cc1", "values": [{"measurement": "Activity", "value": 1.98}]}, {"compound": "Cn1c(CC(=O)Nc2ccc(Cl)cc2)cs/c1=N\\c1cccc(Br)c1", "values": [{"measurement": "Activity", "value": 1.98}]}, {"compound": "Cn1c(CC(=O)Nc2ccc(Oc3ccccc3)cc2)cs/c1=N\\c1cccc(F)c1", "values": [{"measurement": "Activity", "value": 1.23}]}, {"compound": "COc1ccc(NC(=O)Cc2cs/c(=N\\c3cccc(Br)c3)n2C)cc1", "values": [{"measurement": "Activity", "value": 1.99}]}, {"compound": "COc1cccc(/N=c2\\scc(CC(=O)Nc3ccc(Cl)cc3)n2C)c1", "values": [{"measurement": "Activity", "value": 1.76}]}, {"compound": "COc1ccc(NC(=O)Cc2cs/c(=N\\c3ccccc3Cl)n2C)cc1", "values": [{"measurement": "Activity", "value": 1.98}]}, {"compound": "Cn1c(CC(=O)Nc2ccc(Cl)cc2)cs/c1=N\\c1cccc(F)c1", "values": [{"measurement": "Activity", "value": 1.96}]}, {"compound": "CCc1ccc(NC(=O)Cc2cs/c(=N\\c3ccc(F)c(Cl)c3)n2C)cc1", "values": [{"measurement": "Activity", "value": 1.98}]}, {"compound": "Cn1c(CC(=O)Nc2ccc(Cl)cc2)cs/c1=N\\c1ccc(-c2ccccc2)cc1", "values": [{"measurement": "Activity", "value": 1.98}]}, {"compound": "CCc1ccc(NC(=O)Cc2cs/c(=N\\c3ccc(C)cc3Cl)n2C)cc1", "values": [{"measurement": "Activity", "value": 2}]}, {"compound": "CCCCc1ccc(NC(=O)Cc2cs/c(=N\\c3ccc(F)c(Cl)c3)n2C)cc1", "values": [{"measurement": "Activity", "value": 1.3}]}, {"compound": "Cn1c(CC(=O)Nc2ccc(OC(F)(F)F)cc2)cs/c1=N\\c1ccc(F)cc1", "values": [{"measurement": "Activity", "value": 0.9}]}, {"compound": "Cn1c(CC(=O)Nc2ccc(Oc3ccccc3)cc2)cs/c1=N\\c1cccc(Br)c1", "values": [{"measurement": "Activity", "value": 0.9}]}, {"compound": "CCc1ccc(NC(=O)Cc2cs/c(=N\\c3ccc(C#N)c(Cl)c3)n2C)cc1", "values": [{"measurement": "Activity", "value": 1.98}]}, {"compound": "CCc1ccc(NC(=O)Cc2cs/c(=N\\c3ccc(Br)c(C)c3)n2C)cc1", "values": [{"measurement": "Activity", "value": 1.98}]}, {"compound": "CCCCOc1ccc(NC(=O)Cc2cs/c(=N\\c3cccc(F)c3)n2C)cc1", "values": [{"measurement": "Activity", "value": 1}]}, {"compound": "COc1ccc(NC(=O)Cc2cs/c(=N\\c3cccc(F)c3)n2C)cc1", "values": [{"measurement": "Activity", "value": 1.97}]}]}
